Measurements from patent US10391089B2, “PRMT5 inhibitors and uses therof” (Epizyme, Inc., priority 2012, dated 2019).

What follows are compounds tested on symmetric di-methyl arginine in Z-138 cells (assay: Z-138 Methylation Assay (In Cell Western for symmetric di-methyl arginine and DNA content)). Conditions: Homo sapiens; Z-138 methylation In Cell Western; read-out: ICW EC50.
Assay type: cell-based
From the text: [formula] [formula] Where top and bottom are the normally allowed to float, but may be fixed at 100 or 0 respectively in a 3-parameter fit. The Hill Coefficient normally allowed to float but may also be fixed at 1 in a 3-parameter fit. Y is the % inhibition and X is the compound concentration.
RPMI/Glutamax medium, penicillin-streptomycin, heat inactivated fetal bovine serum, and D-PBS were purchased from Life Technologies, Grand Island, N.Y., USA. Odyssey blocking buffer, 800CW goat anti-rabbit IgG (H+L) antibody, and Licor Odyssey infrared scanner were purchased from Licor Biosciences, Lincoln, Nebr., USA. Symmetric di-methyl arginine antibody was purchased from EMD Millipore, Billerica, Mass., USA. 16% Paraformaldehyde was purchased from Electron Microscopy Sciences, Hatfield, Pa., USA.
Cell Treatment, in Cell Western (ICW) for Detection of Symmetric Di-Methyl Arginine and DNA Content.
Z-138 cells were seeded in assay medium at a concentration of 50,000 cells per mL to a 384-well cell culture plate with 50 μL per well. Compound (100 nL) from 384 well source plates was added directly to 384 well cell plate. Plates were incubated at 37° C., 5% CO2 for 96 hours. […] Plates were incubated at room temperature for 30 minutes then incubated at 37° C., 5% CO2 for 5 hours. After the incubation, 40 μL per well of 8% paraformaldehyde in PBS (16% paraformaldahyde was diluted to 8% in PBS) was added to each plate and incubated for 30 minutes. […] Next 30 μL per well of Odyssey blocking buffer were added to each plate and incubated 1 hour at room temperature. Blocking buffer was removed and 20 μL per well of primary antibody was added (symmetric di-methyl arginine diluted 1:100 in Odyssey buffer with 0.1% Tween 20 (v/v)) and plates were incubated overnight (16 hours) at 4° C. Plates were washed 5 times with 100 μL per well of wash buffer. Next 20 μL per well of secondary antibody was added (1:200 800CW goat anti-rabbit IgG (H+L) antibody, 1:1000 DRAQ5 (Biostatus limited) in Odyssey buffer with 0.1% Tween 20 (v/v)) and incubated for 1 hour at room temperature. The plates were washed 5 times with 100 μL per well wash buffer then 1 time with 100 μL per well of water. Plates were allowed to dry at room temperature then imaged on the Licor Odyssey machine which measures integrated intensity at 700 nm and 800 nm wavelengths. Both 700 and 800 channels were scanned.
First, the ratio for each well was determined by:
Each plate included fourteen control wells of DMSO only treatment (minimum inhibition) as well as fourteen control wells for maximum inhibition treated with 3 μM of a reference compound (Background wells). The average of the ratio values for each control type was calculated and used to determine the percent inhibition for each test well in the plate. Reference compound was serially diluted three-fold in DMSO for a total of nine test concentrations, beginning at 3 μM. Percent inhibition was determined and IC50 curves were generated using triplicate wells per concentration of compound.
In the case of `CS(=O)(=O)N1CCC(Oc2cncc(C(=O)NC[C@H](O)CN3CCc4ccccc4C3)c2)CC1` [Compound 290], the EC50 is reported as < 100 nM.
Compound `CN1CCC(Oc2cncc(C(=O)NC[C@H](O)CN3CCc4ccccc4C3)c2)CC1` [Compound 288] has an EC50 of 101 to 1000 nM.
`O=C(NC[C@H](O)CN1CCc2ccccc2C1)c1cncc(NC2CCN(CC(F)(F)F)C2)c1` (some centres unmarked) [Compound 303] was tested, and the EC50 was < 100 nM.
`O=C(NC[C@H](O)CN1CCc2ccccc2C1)c1cccc2ccccc12` [Compound 295] was tested, and the EC50 was 101 to 1000 nM.
`O=C(NC[C@H](O)CN1CCc2ccccc2C1)c1cncc(NC2COC2)c1` [Compound 299] was tested, and the EC50 was < 100 nM.
